Source: BigSolDB 2.1

CCOC(=O)C1=C(C)NC(C)=C(C(=O)OCC)C1
solubility (mole fraction)
Details | in isopentanol | in isopropanol | in methanol | in methyl acetate | in n-butanol | in n-pentanol | in n-propanol | in toluene
272.15 K | 0.000677 | 0.000462 | 0.000246 | 0.00103 | 0.000605 | 0.000647 | 0.000513 | 0.00015
277.95 K | 0.000996 | 0.00066 | 0.000355 | – | 0.000859 | 0.000925 | 0.000735 | –
278.15 K | – | – | – | 0.00146 | – | – | – | 0.00023
283.15 K | 0.00139 | 0.000904 | 0.000486 | 0.00192 | 0.00116 | 0.00126 | 0.000998 | 0.000323
288.15 K | 0.00189 | 0.0012 | 0.000655 | 0.00251 | 0.00154 | 0.00169 | 0.00133 | 0.000449
293.05 K | 0.00254 | 0.00158 | 0.000865 | – | 0.00201 | 0.00221 | 0.00174 | –
293.15 K | – | – | – | 0.00326 | – | – | – | 0.000618
298.15 K | 0.00341 | 0.00208 | 0.00114 | 0.0042 | 0.00262 | 0.00292 | 0.00229 | 0.000839
303.15 K | 0.0045 | 0.00269 | 0.0015 | – | 0.00338 | 0.00378 | 0.00296 | –
303.35 K | – | – | – | 0.00541 | – | – | – | 0.00114
308.05 K | 0.00587 | 0.00344 | 0.00192 | – | 0.0043 | 0.00483 | 0.0038 | –
308.25 K | – | – | – | 0.00679 | – | – | – | 0.00151
312.35 K | 0.00738 | 0.00424 | 0.00238 | – | 0.00528 | 0.00597 | 0.00468 | –
313.15 K | – | – | – | 0.00848 | – | – | – | 0.00198
318.15 K | 0.00989 | 0.00557 | 0.00315 | 0.0106 | 0.00691 | 0.00787 | 0.00613 | 0.0026
323.15 K | 0.0126 | 0.00702 | 0.004 | – | 0.00862 | 0.00988 | 0.00773 | –
323.65 K | – | – | – | 0.0134 | – | – | – | 0.00346
